Experimental data from patent US10189836B2, “Therapeutic compounds, compositions and methods of use thereof” (Genentech, Inc., priority 2015, dated 2019).

How the values were obtained:
[1] = target: isolated recombinant JAK1 kinase domain (Homo sapiens (Human), UniProt P23458); assay: JAK1 enzyme assay (Caliper LabChip, Ki); assay type: biochemical; conditions: isolated recombinant JAK1 kinase domain, 1.5 nM enzyme, ATP 25 μM
[2] = target: isolated recombinant JAK2 kinase domain (Homo sapiens (Human), UniProt O60674); assay: JAK2 enzyme assay (Caliper LabChip, Ki); assay type: biochemical; conditions: isolated recombinant JAK2 kinase domain, 0.2 nM enzyme, ATP 25 μM
isolated recombinant JAK2 kinase domain, sequence (O60674 849-1124): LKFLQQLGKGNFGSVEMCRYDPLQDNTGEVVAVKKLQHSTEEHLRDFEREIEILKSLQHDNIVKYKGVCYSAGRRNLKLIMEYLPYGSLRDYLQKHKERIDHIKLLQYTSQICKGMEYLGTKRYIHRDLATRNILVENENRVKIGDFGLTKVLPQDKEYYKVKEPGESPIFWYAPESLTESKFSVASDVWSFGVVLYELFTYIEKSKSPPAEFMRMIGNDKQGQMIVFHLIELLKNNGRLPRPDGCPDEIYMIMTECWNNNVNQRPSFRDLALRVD

isolated recombinant JAK1 kinase domain, sequence (P23458 875-1153): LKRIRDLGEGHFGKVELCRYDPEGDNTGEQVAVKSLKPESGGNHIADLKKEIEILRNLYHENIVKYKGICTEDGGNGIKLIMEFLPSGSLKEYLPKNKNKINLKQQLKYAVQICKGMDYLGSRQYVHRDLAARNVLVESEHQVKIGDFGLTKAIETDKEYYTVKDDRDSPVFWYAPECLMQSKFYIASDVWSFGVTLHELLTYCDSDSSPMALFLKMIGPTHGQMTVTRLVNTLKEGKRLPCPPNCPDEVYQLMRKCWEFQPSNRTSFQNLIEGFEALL

Q: What does the source list for `CN1CCN(C(=O)Cn2cc(Nc3nc4c(N5CC6CCC(C5)N6C(=O)CC5CSCCS5)cccn4n3)cn2)CC1` (stereo not drawn) [Example 9, 2-(1,4-dithian-2-yl)-1-[3-[2-[[1-[2-(4-methylpiperazin-1-yl)-2-oxo-ethyl]pyrazol-4-yl]amino]-[1,2,4]triazolo[1,5-a]pyridin-8-yl]-3,8-diazabicyclo[3.2.1]octan-8-yl]ethanone]?
A: Ki [1]: 0.6 nM; Ki [2]: 0.9 nM

Q: Which Ki [1] does the source give for `CN1CCN(C(=O)Cn2cc(Nc3nc4c(N5CC6CCC(C5)N6S(=O)(=O)c5cccc(C(F)(F)F)c5)cccn4n3)cn2)CC1` [Example 133, 1-(4-methylpiperazin-1-yl)-2-[4-[[8-[8-(3-(trifluoromethyl)phenyl]sulfonyl-3,8-diazabicyclo[3.2.1]octan-3-yl]-[1,2,4]triazolo[1,5-a]pyridin-2-yl]amino]pyrazol-1-yl]ethanone] here?
A: 0.8 nM

Q: What about the Ki [2] of the same molecule?
A: 1.5 nM

Q: `CN1CCN(C(=O)Cn2cc(Nc3nc4c(N5CC6CCC(C5)N6C(=O)c5cnc(CC(F)(F)F)s5)cccn4n3)cn2)CC1` [Example 196] was tested. Which Ki [1] did it give?
A: 0.6 nM

Q: And the Ki [2]?
A: 1.1 nM

Q: For `CN1CCN(C(=O)Cn2cc(Nc3nc4c(N5CC6CCC(C5)N6C(=O)COCC(F)(F)F)cccn4n3)cn2)CC1` [Example 45, 1-(4-methylpiperazin-1-yl)-2-[4-[[8-[8-[2-(2,2,2-trifluoroethoxy)acetyl]-3,8-diazabicyclo[3.2.1]octan-3-yl]-[1,2,4]triazolo[1,5-a]pyridin-2-yl]amino]pyrazol-1-yl]ethanone], which Ki [1] is on record?
A: 1 nM

Q: And the Ki [2]?
A: 3.5 nM

Q: For `O=C(Cn1cc(Nc2nc3c(N4CC5CCC(C4)N5C(=O)[C@H]4C[C@H](C(F)(F)F)C4)cccn3n2)cn1)N1CCN(C2CSC2)CC1` [Example 83, 1-[4-(thietan-3-yl)piperazin-1-yl]-2-[4-[[8-[8-[3-(trifluoromethyl)cyclo-butanecarbonyl]-3,8-diazabicyclo[3.2.1]octan-3-yl]-[1,2,4]triazolo[1,5-a]pyridin-2-yl]amino]pyrazol-1-yl]ethanone], which Ki [1] is on record?
A: 1.6 nM

Q: What about the Ki [2] of the same molecule?
A: 4 nM

Q: With `CN1CCN(C(=O)Cn2cc(Nc3nc4c(N5CC6CCC(C5)N6C(=O)CC(N)C(F)(F)F)cccn4n3)cn2)CC1` (stereo not drawn) [Example 102, 3-amino-4,4,4-trifluoro-1-[3-[2-[[1-[2-(4-methylpiperazin-1-yl)-2-oxo-ethyl]pyrazol-4-yl]amino]-[1,2,4]triazolo[1,5-a]pyridin-8-yl]-3,8-diazabicyclo[3.2.1]octan-8-yl]butan-1-one] as the molecule, how does the Ki [1] read?
A: 3.4 nM

Q: What about the Ki [2] of the same molecule?
A: 7.9 nM

Q: How did the Ki [1] turn out when `N#CC1(CNC2CCN(C(=O)Cn3cc(Nc4nc5c(N6CC7CCC(C6)N7C(=O)C6CC(C(F)(F)F)C6)cccn5n4)cn3)CC2)CC1` (stereo not drawn) [Example 190, 1-[[[1-[2-[4-[[8-[8-[3-(trifluoromethyl)cyclo-butanecarbonyl]-3,8-diazabicyclo[3.2.1]octan-3-yl]-[1,2,4]triazolo[1,5-a]pyridin-2-yl]amino]pyrazol-1-yl]acetyl]-4-piperidyl]amino]methyl]-cyclopropanecarbonitrile] was run?
A: 1 nM

Q: And the Ki [2]?
A: 1.8 nM

Q: How did the Ki [1] turn out when `N#CC1(CNC2CCN(C(=O)Cn3cc(Nc4nc5c(N6CC7CCC(C6)N7C(=O)N6CC(C(F)(F)F)C6)cccn5n4)cn3)CC2)CC1` [Example 119, 1-[[[1-[2-[4-[[8-[8-[3-(trifluoromethyl)azetidine-1-carbonyl]-3,8-diazabicyclo[3.2.1]octan-3-yl]-[1,2,4]triazolo[1,5-a]pyridin-2-yl]amino]pyrazol-1-yl]acetyl]-4-piperidyl]amino]methyl] cyclopropanecarbonitrile] was run?
A: 0.8 nM

Q: What about the Ki [2] of the same molecule?
A: 0.8 nM

Q: For `O=C(Cn1cc(Nc2nc3c(N4CC5CCC(C4)N5C(=O)N4CC(C(F)(F)F)C4)cccn3n2)cn1)N1CCN(C2CCOCC2)CC1` [Example 39, 1-(4-tetrahydropyran-4-ylpiperazin-1-yl)-2-[4-[[8-[8-[3-(trifluoromethyl)azetidine-1-carbonyl]-3,8-diazabicyclo[3.2.1]octan-3-yl]-[1,2,4]triazolo[1,5-a]pyridin-2-yl]amino]pyrazol-1-yl]ethanone], which Ki [1] is on record?
A: 0.7 nM

Q: What about the Ki [2] of the same molecule?
A: 0.4 nM
